Results published in ChEMBL document CHEMBL6182926, “Design, Synthesis, and Biological Activity Evaluation of Deuterated Diphenyl Azole Alcohol-Based CYP51 Inhibitors” (J Med Chem, 2025).
Values after ≈ are worked out from the molar mass of the structure shown.

Tests used:
[1] = test system: Candida albicans; assay: Antifungal activity against Candida albicans SC 5314 assessed as inhibition of visible growth; type: functional
[2] = test system: Candida albicans; assay: Antifungal activity against Candida albicans CPCC 400616 assessed as inhibition of visible growth; type: functional
[3] = test system: Candida tropicalis; assay: Antifungal activity against Candida tropicalis CGMCC 2.3739 assessed as inhibition of visible growth; type: functional
[4] = test system: Candida parapsilosis; assay: Antifungal activity against Candida parapsilosis GIM 2.190 assessed as inhibition of visible growth; type: functional; settings: Lodderomyces parapsilosis
[5] = test system: Nakaseomyces glabratus; assay: Antifungal activity against Clinical isolate Candida glabrata assessed as inhibition of visible growth; type: functional
[6] = test system: Pichia kudriavzevii; assay: Antifungal activity against Candida krusei AS 2.1045 assessed as inhibition of visible growth; type: functional
[7] = test system: Cryptococcus neoformans; assay: Antifungal activity against Cryptococcus neoformans CGMCC 2.3161 assessed as inhibition of visible growth; type: functional
[8] = test system: Aspergillus fumigatus; assay: Antifungal activity against Aspergillus fumigatus CGMCC 3.7795 assessed as inhibition of visible growth; type: functional
[9] = Metabolic stability in human liver microsomes assessed as half life by LC-MS/MS analysis; type: ADME, Microsome; settings: for half-life: liver microsomes
[10] = Metabolic stability in human liver microsomes assessed as compound remaining measured up to 60 mins by LC-MS/MS analysis; type: ADME, Microsome; settings: for remaining at 1 h: liver microsomes, read-out: Activity

| SMILES | MIC80 [1] [µg/mL] | MIC80 [2] [µg/mL] | MIC80 [3] [µg/mL] | MIC80 [4] [µg/mL] | MIC80 [5] [µg/mL] | MIC80 [6] [µg/mL] | MIC80 [7] [µg/mL] | MIC80 [8] [µg/mL] | half-life [9] [min] | remaining at 1 h [10] [%] | t1/2 ([9]; microsomes) [min] | Activity ([10]; microsomes, 1 h) [%] |
| --- | --- | --- | --- | --- | --- | --- | --- | --- | --- | --- | --- | --- |
| [2H]C([2H])([2H])N(Cc1ccc(-c2ccc(Cl)cc2F)nc1)[C@H](C)[C@](O)(Cn1cncn1)c1ccc(F)cc1F | 0.012 (≈ 0.0238 µM) | 0.006 (≈ 0.0119 µM) | 0.012 (≈ 0.0238 µM) | 0.006 (≈ 0.0119 µM) | 0.012 (≈ 0.0238 µM) | 0.012 (≈ 0.0238 µM) | 0.012 (≈ 0.0238 µM) | 0.05 (≈ 0.099 µM) |  |  |  |  |
| [2H]C([2H])([2H])N(Cc1ccc(-c2ccc(Cl)cc2)nc1)[C@H](C)[C@](O)(Cn1cncn1)c1ccc(F)cc1F | 0.006 (≈ 0.0123 µM) | 0.006 (≈ 0.0123 µM) | 0.006 (≈ 0.0123 µM) | 0.006 (≈ 0.0123 µM) | 0.012 (≈ 0.0246 µM) | 0.012 (≈ 0.0246 µM) | 0.006 (≈ 0.0123 µM) | 0.05 (≈ 0.103 µM) | 2.3 | 1.07 |  |  |
| CN(Cc1ccc(-c2ccc(Cl)cc2)cc1)CC(O)(Cn1cncn1)c1ccc(F)cc1F (stereo not drawn) | 0.006 (≈ 0.0128 µM) | 0.006 (≈ 0.0128 µM) | 0.006 (≈ 0.0128 µM) | 0.006 (≈ 0.0128 µM) | 0.012 (≈ 0.0256 µM) | 0.012 (≈ 0.0256 µM) | 0.012 (≈ 0.0256 µM) |  |  |  | 9.23 | 21.3 |
| [2H]C([2H])([2H])N(Cc1ccc(-c2ccc(Cl)cc2F)cc1F)[C@H](C)[C@](O)(Cn1cncn1)c1ccc(F)cc1F | 0.012 (≈ 0.023 µM) | 0.012 (≈ 0.023 µM) | 0.012 (≈ 0.023 µM) | 0.012 (≈ 0.023 µM) | 0.025 (≈ 0.0479 µM) | 0.05 (≈ 0.0958 µM) | 0.025 (≈ 0.0479 µM) | 0.05 (≈ 0.0958 µM) |  |  |  |  |
| [2H]C([2H])([2H])N(Cc1ccc(-c2ccc(Cl)cc2)c(F)c1)[C@H](C)[C@](O)(Cn1cncn1)c1ccc(F)cc1F | 0.006 (≈ 0.0119 µM) | 0.006 (≈ 0.0119 µM) | 0.006 (≈ 0.0119 µM) | 0.006 (≈ 0.0119 µM) | 0.025 (≈ 0.0496 µM) | 0.012 (≈ 0.0238 µM) | 0.012 (≈ 0.0238 µM) | 0.025 (≈ 0.0496 µM) |  |  |  |  |
| [2H]C([2H])([2H])N(Cc1ccc(-c2ccc(Cl)c(F)c2)nc1)[C@H](C)[C@](O)(Cn1cncn1)c1ccc(F)cc1F | 0.012 (≈ 0.0238 µM) | 0.012 (≈ 0.0238 µM) | 0.006 (≈ 0.0119 µM) | 0.006 (≈ 0.0119 µM) | 0.012 (≈ 0.0238 µM) | 0.012 (≈ 0.0238 µM) | 0.012 (≈ 0.0238 µM) | 0.025 (≈ 0.0495 µM) |  |  |  |  |
| O[C@@](Cn1cnnn1)(c1ccc(F)cc1F)C(F)(F)c1ccc(-c2ccc(OCC(F)(F)F)cc2)cn1 [OTESECONAZOLE] | 0.006 (≈ 0.0114 µM) | 0.006 (≈ 0.0114 µM) | 0.006 (≈ 0.0114 µM) | 0.006 (≈ 0.0114 µM) | 0.1 (≈ 0.19 µM) | 0.1 (≈ 0.19 µM) | 0.012 (≈ 0.0228 µM) | > 64 |  |  |  |  |

Second part, the compound after the results:

| MIC80 [1] [µg/mL] | MIC80 [2] [µg/mL] | MIC80 [3] [µg/mL] | MIC80 [4] [µg/mL] | MIC80 [5] [µg/mL] | MIC80 [6] [µg/mL] | MIC80 [7] [µg/mL] | MIC80 [8] [µg/mL] | half-life [9] [min] | remaining at 1 h [10] [%] | t1/2 ([9]; microsomes) [min] | Activity ([10]; microsomes, 1 h) [%] | SMILES |
| --- | --- | --- | --- | --- | --- | --- | --- | --- | --- | --- | --- | --- |
| 0.012 (≈ 0.023 µM) | 0.012 (≈ 0.023 µM) | 0.012 (≈ 0.023 µM) | 0.012 (≈ 0.023 µM) | 0.025 (≈ 0.0479 µM) | 0.025 (≈ 0.0479 µM) | 0.025 (≈ 0.0479 µM) | 0.05 (≈ 0.0958 µM) |  |  |  |  | [2H]C([2H])([2H])N(Cc1ccc(-c2ccc(Cl)c(F)c2)cc1F)[C@H](C)[C@](O)(Cn1cncn1)c1ccc(F)cc1F |
| 0.006 (≈ 0.0115 µM) | 0.006 (≈ 0.0115 µM) | 0.006 (≈ 0.0115 µM) | 0.006 (≈ 0.0115 µM) | 0.012 (≈ 0.0231 µM) | 0.012 (≈ 0.0231 µM) | 0.012 (≈ 0.0231 µM) | 0.025 (≈ 0.0481 µM) | 35.1 | 29 |  |  | [2H]C([2H])([2H])N(Cc1ccc(-c2ccc(C(F)(F)F)cc2)cc1)[C@H](C)[C@](O)(Cn1cncn1)c1ccc(F)cc1F |
| 0.012 (≈ 0.0217 µM) | 0.012 (≈ 0.0217 µM) | 0.012 (≈ 0.0217 µM) | 0.012 (≈ 0.0217 µM) | 0.025 (≈ 0.0452 µM) | 0.05 (≈ 0.0903 µM) | 0.025 (≈ 0.0452 µM) | 0.05 (≈ 0.0903 µM) |  |  |  |  | [2H]C([2H])([2H])N(Cc1ccc(-c2ccc(OC(F)(F)F)cc2)cc1F)[C@H](C)[C@](O)(Cn1cncn1)c1ccc(F)cc1F |
| 0.012 (≈ 0.0223 µM) | 0.012 (≈ 0.0223 µM) | 0.012 (≈ 0.0223 µM) | 0.012 (≈ 0.0223 µM) | 0.025 (≈ 0.0465 µM) | 0.05 (≈ 0.093 µM) | 0.025 (≈ 0.0465 µM) | 0.05 (≈ 0.093 µM) |  |  |  |  | [2H]C([2H])([2H])N(Cc1ccc(-c2ccc(C(F)(F)F)cc2)cc1F)[C@H](C)[C@](O)(Cn1cncn1)c1ccc(F)cc1F |
| 0.006 (≈ 0.0119 µM) | 0.006 (≈ 0.0119 µM) | 0.006 (≈ 0.0119 µM) | 0.006 (≈ 0.0119 µM) | 0.012 (≈ 0.0238 µM) | 0.006 (≈ 0.0119 µM) | 0.006 (≈ 0.0119 µM) | 0.006 (≈ 0.0119 µM) | 14.1 | 4.91 |  |  | [2H]C([2H])([2H])N(Cc1ccc(-c2ccc(Cl)c(F)c2)cc1)[C@H](C)[C@](O)(Cn1cncn1)c1ccc(F)cc1F |
